Experiment [1] concerns the target T1, human PR-B (Homo sapiens, UniProt P06401).
T1 construct: expressed in transfected cells; host or cells: CV-1 cells (African green monkey kidney fibroblasts), transient transfection
T1 sequence (P06401 1-933): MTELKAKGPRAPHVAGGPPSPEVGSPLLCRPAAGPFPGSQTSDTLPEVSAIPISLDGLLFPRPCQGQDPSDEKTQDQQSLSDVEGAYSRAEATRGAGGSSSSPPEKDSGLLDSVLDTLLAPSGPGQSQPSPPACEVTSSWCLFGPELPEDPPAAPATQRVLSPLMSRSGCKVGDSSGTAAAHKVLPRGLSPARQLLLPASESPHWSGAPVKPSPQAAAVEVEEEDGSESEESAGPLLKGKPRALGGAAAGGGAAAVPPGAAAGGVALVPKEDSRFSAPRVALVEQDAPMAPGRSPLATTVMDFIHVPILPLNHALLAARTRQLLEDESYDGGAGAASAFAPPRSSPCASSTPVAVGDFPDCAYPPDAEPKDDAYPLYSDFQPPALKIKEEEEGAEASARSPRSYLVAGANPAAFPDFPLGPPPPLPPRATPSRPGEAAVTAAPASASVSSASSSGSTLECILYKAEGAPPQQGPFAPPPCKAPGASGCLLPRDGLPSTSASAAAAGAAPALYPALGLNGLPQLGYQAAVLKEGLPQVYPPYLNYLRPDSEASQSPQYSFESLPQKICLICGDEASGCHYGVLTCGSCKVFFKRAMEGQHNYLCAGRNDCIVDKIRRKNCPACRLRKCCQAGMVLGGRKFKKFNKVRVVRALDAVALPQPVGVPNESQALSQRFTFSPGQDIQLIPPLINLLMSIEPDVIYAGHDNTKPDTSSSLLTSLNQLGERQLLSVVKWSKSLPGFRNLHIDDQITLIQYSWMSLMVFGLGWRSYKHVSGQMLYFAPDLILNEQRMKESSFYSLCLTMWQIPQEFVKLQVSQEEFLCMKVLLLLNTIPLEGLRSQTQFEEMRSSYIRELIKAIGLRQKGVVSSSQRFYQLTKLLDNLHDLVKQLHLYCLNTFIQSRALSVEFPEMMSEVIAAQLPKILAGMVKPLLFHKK
Kind of experiment: Co-transfection assay, PR agonist activity.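 For all read-outs here: CV-1 cells (African green monkey kidney) co-transfected with receptor plasmid and hormone-responsive firefly luciferase reporter, agonism read as compound-dependent rise in luciferase signal.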 Type of experiment: cell-based. The following applies: for PR Agonist CV-1 Cells Efficacy (%): percent maximal response relative to reference agonist progesterone; for Emax: CV-1, read-out: PR Agonist CV-1 Cells Efficacy (%).

For experiment [2], the target named is T1, human PR-B. Kind of experiment: Co-transfection assay, PR antagonist activity.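 For all read-outs here: monkey kidney fibroblasts co-transfected with receptor expression plasmid and hormone-responsive luciferase reporter, antagonism read as reduced luciferase signal.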 The class given is cell-based. The settings on record: for Emax: CV-1, read-out: PR Antagonist CV-1 Cells Efficacy (%).
The target of experiment [3] is T2, human progesterone receptor A form (PR-A) (Homo sapiens, UniProt P06401).
T2 sequence (P06401 1-933): T1 sequence (P06401 1-933)
Kind of experiment: PR binding assay.

Experiment [4] deals with T3, AR (Homo sapiens, UniProt P10275).
T3 construct: expressed in transfected cells; host or cells: CV-1 cells, transient transfection
T3 sequence (P10275 whole entry): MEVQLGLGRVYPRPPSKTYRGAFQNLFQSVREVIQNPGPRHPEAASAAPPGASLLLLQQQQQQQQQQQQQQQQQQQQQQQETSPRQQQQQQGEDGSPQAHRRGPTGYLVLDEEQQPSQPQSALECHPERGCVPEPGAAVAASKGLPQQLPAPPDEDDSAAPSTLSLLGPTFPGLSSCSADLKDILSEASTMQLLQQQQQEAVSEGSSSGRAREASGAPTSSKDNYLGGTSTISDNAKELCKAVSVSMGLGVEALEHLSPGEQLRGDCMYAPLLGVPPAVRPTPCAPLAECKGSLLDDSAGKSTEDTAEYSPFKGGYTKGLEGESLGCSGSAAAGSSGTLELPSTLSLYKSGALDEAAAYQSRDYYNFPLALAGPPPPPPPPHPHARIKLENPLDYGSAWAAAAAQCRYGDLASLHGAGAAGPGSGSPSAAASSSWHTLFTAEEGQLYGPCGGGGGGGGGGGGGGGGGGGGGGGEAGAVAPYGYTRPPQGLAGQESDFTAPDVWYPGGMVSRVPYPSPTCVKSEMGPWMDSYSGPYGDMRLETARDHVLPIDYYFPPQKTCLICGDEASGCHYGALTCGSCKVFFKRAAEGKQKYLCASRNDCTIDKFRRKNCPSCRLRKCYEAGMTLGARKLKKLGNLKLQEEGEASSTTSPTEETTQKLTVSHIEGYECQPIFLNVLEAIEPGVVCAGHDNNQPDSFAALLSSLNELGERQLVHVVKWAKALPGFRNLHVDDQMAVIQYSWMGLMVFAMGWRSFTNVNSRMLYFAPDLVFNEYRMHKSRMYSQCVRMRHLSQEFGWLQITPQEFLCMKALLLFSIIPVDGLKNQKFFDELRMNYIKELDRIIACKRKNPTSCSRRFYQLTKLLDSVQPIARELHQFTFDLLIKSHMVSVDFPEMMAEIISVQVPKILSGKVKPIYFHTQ
Kind of experiment: Co-transfection assay, AR antagonist activity. The class given is cell-based.

Experiment [5] concerns the target T4, ER (Homo sapiens, UniProt P03372).
T4 construct: expressed in transfected cells; host or cells: CV-1 cells, transient transfection, with MTV-ERE5-LUC reporter
Kind of experiment: Co-transfection assay, ER antagonist activity. The class given is cell-based.

The next experiment deals with T5, GR (Homo sapiens, UniProt P04150).
T5 construct: expressed in transfected cells; host or cells: CV-1 cells, transient transfection
T5 sequence (P04150 1-777): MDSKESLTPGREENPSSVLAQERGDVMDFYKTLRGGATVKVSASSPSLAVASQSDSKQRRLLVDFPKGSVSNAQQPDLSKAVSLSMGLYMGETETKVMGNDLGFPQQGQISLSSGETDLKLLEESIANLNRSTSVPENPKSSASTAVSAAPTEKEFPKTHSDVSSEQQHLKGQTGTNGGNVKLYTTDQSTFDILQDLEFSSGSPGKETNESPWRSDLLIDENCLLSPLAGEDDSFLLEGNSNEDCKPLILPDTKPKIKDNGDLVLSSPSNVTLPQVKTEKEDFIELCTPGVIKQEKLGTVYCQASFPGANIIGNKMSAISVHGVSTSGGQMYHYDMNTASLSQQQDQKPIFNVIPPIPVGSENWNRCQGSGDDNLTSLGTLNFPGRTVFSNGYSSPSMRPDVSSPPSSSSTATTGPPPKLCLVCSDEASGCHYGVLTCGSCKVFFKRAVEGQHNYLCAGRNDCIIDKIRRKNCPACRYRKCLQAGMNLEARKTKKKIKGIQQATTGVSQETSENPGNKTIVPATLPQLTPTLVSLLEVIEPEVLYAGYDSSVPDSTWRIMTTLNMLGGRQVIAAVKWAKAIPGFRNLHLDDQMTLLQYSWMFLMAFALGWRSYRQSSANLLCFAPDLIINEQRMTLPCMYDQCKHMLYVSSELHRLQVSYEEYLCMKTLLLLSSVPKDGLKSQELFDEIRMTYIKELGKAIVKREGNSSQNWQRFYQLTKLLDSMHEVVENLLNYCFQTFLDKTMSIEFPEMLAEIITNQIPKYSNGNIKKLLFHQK
Kind of experiment: Co-transfection assay, GR antagonist activity. Type of experiment: cell-based.

The target in another experiment is T6, MR (Homo sapiens, UniProt P08235).
T6 construct: expressed in transfected cells; host or cells: CV-1 cells, transient transfection
T6 sequence (P08235 1-984): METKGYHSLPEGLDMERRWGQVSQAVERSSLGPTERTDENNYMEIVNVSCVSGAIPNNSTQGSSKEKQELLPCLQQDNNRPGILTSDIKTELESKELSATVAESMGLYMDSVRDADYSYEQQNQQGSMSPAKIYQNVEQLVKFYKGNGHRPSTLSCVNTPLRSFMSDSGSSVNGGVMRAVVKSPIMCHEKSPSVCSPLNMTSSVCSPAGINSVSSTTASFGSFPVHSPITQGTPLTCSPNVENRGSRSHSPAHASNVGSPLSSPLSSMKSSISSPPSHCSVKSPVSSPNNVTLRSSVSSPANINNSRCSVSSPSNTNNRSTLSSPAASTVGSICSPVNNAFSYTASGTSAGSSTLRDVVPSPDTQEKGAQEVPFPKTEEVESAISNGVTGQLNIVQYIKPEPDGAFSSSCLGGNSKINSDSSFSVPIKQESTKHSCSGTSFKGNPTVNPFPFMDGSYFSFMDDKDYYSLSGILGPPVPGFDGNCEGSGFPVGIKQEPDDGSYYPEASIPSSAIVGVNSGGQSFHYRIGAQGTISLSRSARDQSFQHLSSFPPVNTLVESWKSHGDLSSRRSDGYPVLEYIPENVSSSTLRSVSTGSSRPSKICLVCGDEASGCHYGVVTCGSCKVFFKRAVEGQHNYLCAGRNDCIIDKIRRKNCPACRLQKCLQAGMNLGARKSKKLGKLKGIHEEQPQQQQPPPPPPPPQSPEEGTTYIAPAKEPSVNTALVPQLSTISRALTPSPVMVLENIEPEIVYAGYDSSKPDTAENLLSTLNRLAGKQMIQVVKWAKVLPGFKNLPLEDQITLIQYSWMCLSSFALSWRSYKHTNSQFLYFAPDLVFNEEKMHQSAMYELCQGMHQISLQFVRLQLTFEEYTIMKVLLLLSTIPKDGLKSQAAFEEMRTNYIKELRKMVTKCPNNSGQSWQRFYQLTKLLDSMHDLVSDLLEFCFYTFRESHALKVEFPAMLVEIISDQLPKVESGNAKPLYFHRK
Kind of experiment: Co-transfection assay, MR antagonist activity. The class given is cell-based.

Experiment [6] concerns PR. Kind of experiment: Implantation assay (antiprogestin activity). Type of experiment: in vivo, mice (ICR strain). Here is the method:
Mating was assumed to have taken place at 02.00 h, time 0.
Compound 150 was dissolved in sesame oil (50 mg/mL) and kept at room temperature before use. […] Control animals received an equivuivalent volume of the control vehicle, sesame oil, alone.
The animals were sacrificed, and autopsies were carried out at Day 8 of pregnancy, and numbers of implantation sites counted and recorded, and are shown in Table 7 below. Each group consisted of between 5 and 7 animals.

Experiment [7] addresses T4, ER. Kind of experiment: Co-transfection assay, ER agonist activity. Type of experiment: cell-based.
The subject of experiment [8] is PR. Kind of experiment: Uterine wet weight assay (PR agonist effectiveness). The class given is in vivo, Sprague-Dawely rats. From the text: J. Obstet. […] R.I. Dorfman, Academic Press, New York, New York, pp101-130 (1969), the disclosures of which are herein incorporated by reference. Four to five week old, ovariectomized, Sprague-Dawely rats (Harlan-Sprague-Dawely, Indianapolis, IN) were obtained 1 week after surgery and allowed to acclimate for an additional week after shipment.

The target in experiment [9] is T3, AR. Kind of experiment: Co-transfection assay, AR agonist activity. The following applies: CV-1 cells. The class given is cell-based.
For another experiment, the system named is human AR. Kind of experiment: AR whole cell binding assay (COS-1 cells). The settings on record: whole COS-1 cells, competition with 1 nM 3H-DHT, three hours at 37°C.
Where [10] appears, read: CV-1 cells, agonist potency = EC50, read-out: PR Agonist CV-1 Cells Potency.
[11] abbreviates: competition with [3H] progesterone, baculovirus extract, 4°C, 16 hours, read-out: PR Binding Ki.

Read-outs that look alike come from different tables or passages of the source. A value given as a limit tells only on which side of the number the result lay.

T4 sequence (P03372 whole entry): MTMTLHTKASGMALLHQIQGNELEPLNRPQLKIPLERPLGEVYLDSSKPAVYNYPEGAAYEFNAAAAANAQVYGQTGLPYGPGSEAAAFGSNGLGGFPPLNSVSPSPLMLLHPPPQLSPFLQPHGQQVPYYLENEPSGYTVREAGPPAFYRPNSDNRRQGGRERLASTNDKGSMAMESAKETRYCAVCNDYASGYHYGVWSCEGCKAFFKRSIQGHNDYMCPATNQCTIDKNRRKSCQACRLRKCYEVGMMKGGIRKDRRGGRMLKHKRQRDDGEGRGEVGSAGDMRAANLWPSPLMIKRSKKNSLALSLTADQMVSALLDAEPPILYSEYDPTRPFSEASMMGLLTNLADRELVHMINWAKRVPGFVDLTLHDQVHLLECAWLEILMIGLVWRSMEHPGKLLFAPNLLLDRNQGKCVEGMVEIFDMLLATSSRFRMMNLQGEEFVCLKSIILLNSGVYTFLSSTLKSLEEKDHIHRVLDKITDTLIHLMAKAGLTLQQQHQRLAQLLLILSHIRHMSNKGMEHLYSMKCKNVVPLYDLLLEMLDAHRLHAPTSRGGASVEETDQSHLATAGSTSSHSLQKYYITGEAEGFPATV

Regarding “(R/S-4l,5l)-3-Benzenzylidene-5-(4-chlorophenyl)-1,2,3,4-tetrahydro-2,2,4-trimethyl-5H-chromeno[3,4-f]quinoline [Compound 401]”, the EC50 at human PR-B [1] (setting [10]) was found to be 600 nM. Also, the “PR Agonist CV-1 Cells Efficacy (%)” value at human PR-B [1] (CV-1 cells) is given as 43%. Also, the IC50 at human PR-B [2] (CV-1 cells, antagonist potency = IC50, progesterone at its EC50, read-out: PR Antagonist CV-1 Cells Potency) is more than 10000 nM. Also, the “PR Antagonist CV-1 Cells Efficacy (%)” value on human PR-B [2] (CV-1 cells, percent maximal inhibition, progesterone at its EC50) is “na (na = not active (i.e. efficacy of <20 and potency of >10,000))”. Moreover, the Ki in experiment [3] (setting [11]) was determined as 150 nM.

On to `CC1=CC(C)(C)Nc2ccc(-c3cccc(C#N)c3)cc21` [Compound 150, 6-(3-Cyanophenyl)-1,2-dihydro-2,2,4-trimethylquinoline], for which the Emax at human PR-B [1] came out at 24%; on human PR-B [2], 91%. Also, the IC50 is 140 nM at AR [4], more than 10000 nM against ER [5], 2700 nM on GR and 1900 nM on MR. Besides, in the experiment on PR [6] (5.0 mg/day oral, days 2 to 4 of pregnancy, mice), the “Percent Pregnancy Rate” value was found to be 0. Further, the “effect on pregnancy rate with simultaneous PR agonist” value in the experiment on PR [6] (simultaneous injection of R5020 (promegestone) at 1.0 mg per day) is “reversed to the control level”.

Turning to `CC1=CC(C)(C)Nc2ccc3c(c21)C(c1ccc(Cl)cc1)Oc1ccccc1-3` (racemic) [Compound 163, (R/S)-5-(4-Chlorophenyl)-1,2-dihydro-2,2,4-trimethyl-5H-chromeno[3,4-f]quinoline], the Emax was 77% on human PR-B [1] and 45% on human PR-B [2]. Also, the EC50 on ER [7] was more than 10000 nM. Further, the IC50 against ER [5] came out at 2150 nM; at GR, 1330 nM; against MR it was 1450 nM. Further, the “Mean Uterine Wet Weight” value in the experiment with PR [8] (3.0 mg/rat oral once a day for three days in the presence of estrone (10 µg/day, subcutaneous)) was determined as 125 mg. Besides, the “effect on mean uterine wet weight” value in the experiment with PR [8] (co-administered with estrone, dosage of 3 mg/rat) is “decreased by approximately half”.

Take `CC(=O)O[C@]1(C(C)=O)CC[C@H]2[C@@H]3C[C@H](C)C4=CC(=O)CC[C@]4(C)[C@H]3CC[C@@]21C` [MPA, medroxyprogesterone acetate, reference compound]: the “effect on uterine wet weight” value with PR [8] (co-administered with estrone, doses of 0.3 mg, 1.0 mg, and 3.0 mg/rat) is recorded as “significantly decreased the uterine wet weight”.

In turn, “8-(4-Chlorobenzoyl)-5-trifluoromethyl-7-pyridono[5,6-e]indoline [Compound 420]” gave an EC50 at AR [9] (agonist potency = EC50) of 2100 nM. In addition, at AR [9] (relative to reference agonist DHT), the “AR Agonist CV-1 Cells Efficacy (%)” value amounted to 40%. For the same compound, on AR [4] (CV-1 cells, antagonist potency = IC50, DHT at its EC50, read-out: AR Antagonist CV-1 Cells Potency), the IC50 is 32 nM. Also, at AR [4] (CV-1 cells, percent maximal inhibition, DHT at its EC50), the “AR Antagonist CV-1 Cells Efficacy (%)” value amounted to 80%. For the same compound, in the experiment on human AR, the Ki was found to be 346 nM.

Consider `CC1=CC(C)(C)Nc2ccc(-c3cccc(F)c3F)cc21` [Compound 152, 6-(2,3-Difluorophenyl)-1,2-dihydro-2,2,4-trimethylquinoline], for which, at human PR-B [1], the EC50 was more than 10000 nM and the Emax was less than 20%. On human PR-B [2], the IC50 was determined as 130 nM and the Emax was 82%. Besides, the Ki in experiment [3] is 53 nM.

Consider `C[C@H]1C(=O)C(C)(C)Nc2ccc3c(c21)O[C@H](c1ccccc1)c1ccccc1-3` (relative stereo) [Compound 391, (R/S-4l,6l)-1,2,3,4-Tetrahydro-2,2,4-trimethyl-6-phenyl-5H-isochromeno[3,4-f]-3-quinolinone], for which, at human PR-B [1], the EC50 was more than 10000 nM and the Emax is less than 20%. Besides, at human PR-B [2], the IC50 is 120 nM and the Emax amounted to 65%. The Ki in experiment [3] came out at 187 nM.

As for “8-Bromo-1,2-dihydro-2,2,4-trimethylindeno[1,2-g]quinoline [Compound 117]”, the EC50 at human PR-B [1] (setting [10]) was more than 10000 nM. Also, at human PR-B [1] (CV-1 cells), the “PR Agonist CV-1 Cells Efficacy (%)” value is “na (na = not active (i.e. efficacy of <20 and potency of >10,000))”. Besides, in [3] (setting [11]), the Ki was more than 10000 nM.

For the origin of these results see patent EP1382597A2, “Steroid receptor modulator compounds and methods” (LIGAND PHARMACEUTICALS, INC., priority 1994, dated 1996).
